Where a name gives a salt, the structure may show the parent alone. Read-outs that look alike come from different tables or passages of the source. Each block holds one compound with its values, some of them ahead of it.
Key:
[1] = test system: microcirculation of the chamber of the rabbit's ear; assay: Activity with respect to the microcirculation of the chamber of the rabbit's ear; assay type: in vivo; conditions: 1 mg/kg I.V.
Description: The activity of the compounds administered intravenously with respect to the microcirculation of the chamber of the rabbit's ear was studied.

Solubility in water = assay type: physicochemical; conditions: for solubility: read-out: solubility in water (concentration)
[2] = Acute toxicity determined orally in mice; conditions: mouse, in vivo; oral, mice (NMRI)
Experimental: The acute toxicity was determined orally in mice (NMRI).

arterial blood pressure = assay: Cardiovascular activity, compounds administered intravenously in anaesthetised dogs (arterial blood pressure); assay type: in vivo; conditions: intravenous
Description: (§1) The activity of the compounds administered intravenously was studied in anaesthetised dogs.

femoral flow rate = assay: Cardiovascular activity, compounds administered intravenously in anaesthetised dogs (femoral flow rate); assay type: in vivo; conditions: intravenous; for increase in femoral flow rate: 4 mg/kg; for minimal effective dose: Canis lupus familiaris, read-out: dose at and above which femoral flow rate is significantly increased
Description: as §1

ATP in fresh blood = assay: Effects on ATP in fresh blood measured ex vivo by 31P NMR spectroscopy
Experimental: The effects of the compounds on the ATP in fresh blood were measured ex vivo by ^31 p NMR spectroscopy.
The results are given in the table below in the form of percentage changes.

SMILES: O=C(CCCN1CCCC1)c1cccs1 [Example 1, 4-pyrrolidino-l-(2-thienyl)butanone hydrochloride]
increase in non-terminal arteriolar diameter [1]: significant and long-lasting increase | solubility (Solubility in water): 200 mg/mL | LD50 [2]: 121 ± 10 mg/kg | change in arterial blood pressure (arterial blood pressure; even at 4 mg/kg): no significant change | increase in femoral flow rate (femoral flow rate): 170% | minimal effective dose (femoral flow rate): ≥ 1 mg/kg | percentage change in αATP (ATP in fresh blood): +41.4% | percentage change in βATP (ATP in fresh blood): +31.2% | percentage change in γATP (ATP in fresh blood): +36.7%

SMILES: O=C(CCCN1CCCCC1)c1cccs1 [Example 2, 4-piperidino-l-(2-thienyl)butanone hydrochloride]
solubility in water (in words) (Solubility in water; hydrochloride): water-soluble | LD50 [2]: 235 ± 35 mg/kg | change in arterial blood pressure (arterial blood pressure; 2 mg/kg): without modifying arterial blood pressure | increase in femoral flow rate compared with buflomedil at 4 mg/kg (femoral flow rate; 2 mg/kg): same intensity as buflomedil at a dose of 4 mg/kg | minimal effective dose (femoral flow rate): ≥ 1 mg/kg | duration of effect on femoral flow rate compared with buflomedil (femoral flow rate): longer-lasting than that of buflomedil

SMILES: CC1CCCN(CCCC(=O)c2cccs2)C1 (stereo not drawn) [Example 3, 4-(3-methylpiperidino)-1-(2-thienyl)butanone hydrochloride]
solubility (Solubility in water): 200 mg/mL | LD50 [2]: 207 ± 29 mg/kg | percentage change in αATP (ATP in fresh blood): +54.2% | percentage change in βATP (ATP in fresh blood): +54.6% | percentage change in γATP (ATP in fresh blood): +34.7%

solubility in water (in words) (Solubility in water): water-soluble
SMILES: O=C(CCCN1CCOCC1)c1cccs1 [Example 4, 4-morpholino-l-(2-thienyl)butanone hydrochloride]

solubility in water (in words) (Solubility in water): water-soluble
SMILES: O=C(CCCN1CCCC(CO)C1)c1cccs1 (stereo not drawn) [Example 5, 4-[3-(hydroxymethyl)piperidino]-1-(2-thienyl) butanone hydrochloride]

solubility in water (in words) (Solubility in water): water-soluble
SMILES: O=C(CCCn1ccnc1)c1cccs1 [Example 6, 4-(1-imidazolyl)-1-(2-thienyl)butanone hydrochloride]

SMILES: O=C(CCCN1CCCCCC1)c1cccs1 [Example 7, 4-hexamethylenimino-1-(2-thienyl)butanone hydrochloride]
increase in non-terminal arteriolar diameter [1]: significant and long-lasting increase | solubility in water (in words) (Solubility in water): watersoluble | LD50 [2]: 131 ± 15 mg/kg | increase in femoral flow rate (in words) (femoral flow rate; 1.14 mg/kg and above): significant and longlasting increase | minimal effective dose (femoral flow rate): ≥ 1.14 mg/kg | increase in femoral flow rate compared with buflomedil at 4 mg/kg (femoral flow rate; dose of 1.14 mg/kg and above): larger than that observed with buflomedil at a dose of 4 mg/kg

solubility in water (in words) (Solubility in water): water-soluble
SMILES: O=C(CCCN1CCCC1)c1ccsc1 [Example 8, 4-pyrrolidino-1-(3-thienyl)butanone hydrochloride]

solubility in water (in words) (Solubility in water): water-soluble
SMILES: O=C(CCCN1CCCCCC1)c1ccsc1 [Example 9, 4-hexamethylenimino-1-(3-thienyl)butanone hydrochloride]

solubility in water (in words) (Solubility in water): water-soluble
SMILES: CC1CCCN(CCCC(=O)c2ccsc2)C1 (stereo not drawn) [Example 10, 4-(3-methylpiperidino)-1-(3thienyl)butanone hydrochloride]

SMILES: O=C(CCCN1CCCC1)c1cccs1 [Example 11, 4-pyrrolidino-1-(2-thienyl)butanone 2,4,6-trimethoxybenzoate]
solubility in water (in words) (Solubility in water): soluble in water on heating

SMILES: O=C(CCCN1CCCCC1)c1cccs1 [Example 12, 4-piperidino-1-(2-thienyl)butanone 2,4,6-trimethoxybenzoate]
solubility in water (in words) (Solubility in water): soluble in water on heating

SMILES: COc1cc(OC)c(C(=O)CCCN2CCCC2)c(OC)c1 [buflomedil, reference compound]
increase in femoral flow rate (femoral flow rate): 106% | change in ATP level (ATP in fresh blood): did not reveal any change in ATP level
